Data set [1] relates to Candida albicans. Briefly: Antifungal activity against Candida albicans SC5314 incubated for 48 hrs by CLSI based broth microdilution method. In kind it is functional. On the technique in general: In broth dilution the organism is exposed to a series of concentrations in liquid medium.
For data set [2], the system named is Candida albicans. In words: Antifungal activity against fluconazole resistant Candida albicans 103 incubated for 48 hrs by CLSI based broth microdilution method. In kind it is functional.
In data set [3] the test system is Candida albicans. Briefly: Antifungal activity against fluconazole resistant Candida albicans 904 incubated for 48 hrs by CLSI based broth microdilution method. In kind it is functional.
In data set [4] the test system is Candida albicans. In words: Antifungal activity against fluconazole resistant Candida albicans 7781 incubated for 48 hrs by CLSI based broth microdilution method. In kind it is functional.
A short description of data set [5]: Inhibition of wild type Candida albicans Fructose-1,6-Bisphosphate Aldolase transfected in Escherichia coli BL21 (DE3) incubated for 3 mins in presence of NADH by spectrophotometric analysis.
Data set [6] concerns Candida albicans. In words: Inhibition of wild type Candida albicans Fructose-1,6-Bisphosphate Aldolase transfected in Escherichia coli BL21 (DE3) at 100 uM incubated for 3 mins in presence of NADH by spectrophotometric analysis relative to control.
For data set [7], the system named is Candida albicans. Briefly: Selectivity ratio of IC50 for inhibition of Candida albicans Fructose-1,6-Bisphosphate Aldolase C292S mutant to IC50 for inhibition of wild type Candida albicans Fructose-1,6-Bisphosphate Aldolase.
The nature of data set [8]: Inhibition of Candida albicans Fructose-1,6-Bisphosphate Aldolase C292S mutant transfected in Escherichia coli BL21 (DE3) incubated for 3 mins in presence of NADH by spectrophotometric analysis.
The nature of data set [9]: Inhibition of Candida albicans Fructose-1,6-Bisphosphate Aldolase C111S mutant transfected in Escherichia coli BL21 (DE3) incubated for 3 mins in presence of NADH by spectrophotometric analysis.
Data set [10] is described as follows: Inhibition of Candida albicans Fructose-1,6-Bisphosphate Aldolase C157S mutant transfected in Escherichia coli BL21 (DE3) incubated for 3 mins in presence of NADH by spectrophotometric analysis.
In data set [11] the test system is Candida albicans. Briefly: Inhibition of Candida albicans Fructose-1,6-Bisphosphate Aldolase C111S mutant transfected in Escherichia coli BL21 (DE3) assessed as Km by kinetic based analysis.
In data set [12] the test system is Candida albicans. In words: Inhibition of wild type Candida albicans Fructose-1,6-Bisphosphate Aldolase transfected in Escherichia coli BL21 (DE3) assessed as Km by kinetic based analysis.
In data set [13] the test system is Candida albicans. Briefly: Binding affinity to Candida albicans Fructose-1,6-Bisphosphate Aldolase assessed as Kinact incubated for 12 to 40 mins by NADH-linked enzymatic assay. To be noted: time 12-40 min.
The test system of data set [14] is Candida albicans. In words: Inhibition of Candida albicans Fructose-1,6-Bisphosphate Aldolase C292S mutant transfected in Escherichia coli BL21 (DE3) assessed as Kcat by kinetic based analysis.
Data set [15] concerns Candida albicans. In words: Inhibition of Candida albicans Fructose-1,6-Bisphosphate Aldolase C157S mutant transfected in Escherichia coli BL21 (DE3) assessed as Kcat/Km by kinetic based analysis.
For data set [16], the system named is Candida albicans. Briefly: Inhibition of Candida albicans Fructose-1,6-Bisphosphate Aldolase C292S mutant transfected in Escherichia coli BL21 (DE3) assessed as Km by kinetic based analysis.
The subject of data set [17] is Candida albicans. In words: Inhibition of Candida albicans Fructose-1,6-Bisphosphate Aldolase C111S mutant transfected in Escherichia coli BL21 (DE3) assessed as Kcat by kinetic based analysis.
Data set [18] deals with Candida albicans. In words: Inhibition of Candida albicans Fructose-1,6-Bisphosphate Aldolase C157S mutant transfected in Escherichia coli BL21 (DE3) assessed as Kcat by kinetic based analysis.
Data set [19] relates to Candida albicans. In words: Inhibition of Candida albicans Fructose-1,6-Bisphosphate Aldolase C157S mutant transfected in Escherichia coli BL21 (DE3) assessed as Km by kinetic based analysis.
Data set [20] deals with Candida albicans. Briefly: Inhibition of Candida albicans Fructose-1,6-Bisphosphate Aldolase C292S mutant transfected in Escherichia coli BL21 (DE3) assessed as Kcat/Km by kinetic based analysis.
In data set [21] the test system is Candida albicans. In words: Inhibition of wild type Candida albicans Fructose-1,6-Bisphosphate Aldolase transfected in Escherichia coli BL21 (DE3) assessed as Kcat/Km by kinetic based analysis.
Data set [22] deals with Candida albicans. Briefly: Binding affinity to Candida albicans Fructose-1,6-Bisphosphate Aldolase assessed as ratio of kinact/Ki incubated for 12 to 40 mins by NADH-linked enzymatic assay. Particulars: time 12-40 min.
A short description of data set [23]: Binding affinity to Candida albicans Fructose-1,6-Bisphosphate Aldolase assessed as inhibition constant incubated for 12 to 40 mins by NADH-linked enzymatic assay.
For data set [24], the system named is Candida albicans. In words: Inhibition of Candida albicans Fructose-1,6-Bisphosphate Aldolase C292S mutant transfected in Escherichia coli BL21 (DE3) at 500 uM incubated for 3 mins in presence of NADH by spectrophotometric analysis relative to control.
In data set [25] the test system is Candida albicans. In words: Inhibition of wild type Candida albicans Fructose-1,6-Bisphosphate Aldolase transfected in Escherichia coli BL21 (DE3) assessed as Kcat by kinetic based analysis.
Data set [26] has as its system Candida albicans. In words: Inhibition of Candida albicans Fructose-1,6-Bisphosphate Aldolase C111S mutant transfected in Escherichia coli BL21 (DE3) assessed as Kcat/Km by kinetic based analysis.
Data set [27] is described as follows: Toxicity in po dosed rat assessed as lethal dose. It is filed as organism-based. Particulars: in vivo.
Data set [28] in a line: Cytotoxicity against human HaCaT cells. In kind it is toxicity, cell-based.

The source of these data is ChEMBL document CHEMBL5042539, “Structure-Guided Discovery of the Novel Covalent Allosteric Site and Covalent Inhibitors of Fructose-1,6-Bisphosphate Aldolase to Overcome the Azole Resistance of Candidiasis” (J Med Chem, 2022).

Converted amounts (≈) assume the structure as drawn.

The term MIC80 denotes the lowest concentration that inhibits either 80% of growth or 80% of the strains tested, depending on the study. The term IC50 denotes the concentration at which inhibition is half-maximal. Usually inhibition stands for the relative decrease from the control value, in per cent. By Km is commonly meant the substrate concentration at which the rate is half of its maximum. What is called kcat is the maximal rate divided by the concentration of active sites. As usually defined, the kcat/Km is the turnover number divided by the Michaelis constant. By Ki is commonly meant the dissociation constant of the complex between target and ligand, obtained from inhibition or displacement.

Regarding `O=C(NCc1ccccc1)N1Cc2ccccc2C1=O`, the MIC80 in data set [1], in [2], in data set [3] and in data set [4] was > 64 µg/mL in each case. Also, the IC50 in data set [5] was > 100000 nM. In addition, the inhibition in data set [6] is < 50%.
For `O=c1c2ccccc2[se]n1-c1nncs1`, the Ratio IC50 in data set [7] was 11.3. Also, the IC50 in data set [8] is 1750 nM; in data set [5] it was 155 nM; in [9], 303 nM; in [10], 227 nM.
For `CCCCn1sc2ccccc2c1=O`, the Km in data set [11] was found to be 25.1 µM; in data set [12], 21.9 µM; in data set [16] it was 45.7 µM; in [19] it was 17.8 µM. Moreover, the Ratio IC50 in [7] was > 28.3. In data set [13], the Kinact was 0.00178 s⁻¹. The IC50 in data set [8] was > 500000 nM; in [5] it was 17700 nM; in data set [9] it was 9900 nM; in [10], 12500 nM. In addition, the kcat in data set [14] was found to be 24.8 s⁻¹; in [17] it was 36.1 s⁻¹; in [18], 34.7 s⁻¹; in data set [25] it was 38.6 s⁻¹. Besides, the kcat/Km in data set [15] was found to be 2e+06 M⁻¹ s⁻¹; in data set [20], 500000 M⁻¹ s⁻¹; in data set [21], 1.8e+06 M⁻¹ s⁻¹; in data set [26], 1.4e+06 M⁻¹ s⁻¹. Also, in data set [22], the Ratio is 300 M⁻¹ s⁻¹. In data set [23], the Ki worked out at 5960 nM. Further, the inhibition in [24] is < 50%.
`O=c1c2ccccc2[se]n1-c1ccccc1` [EBSELEN]: the MIC80 in [1], in [2], in data set [3] and in data set [4] was 2 µg/mL (≈ 7.29 µM) throughout. In data set [7], the Ratio IC50 was determined as 80.4. Besides, the IC50 in data set [8] was 1150 nM; in data set [5], 14.3 nM; in data set [28], > 32000 nM; in data set [9] it was 72.6 nM; in [10], 31 nM. In addition, the LD in data set [27] is > 4600 mg/kg.
Regarding `O=C1c2ccccc2CN1Cc1ccccc1`, the MIC80 in data set [1], in data set [2], in [3] and in data set [4] was > 64 µg/mL in each case. Besides, in [5], the IC50 was > 100000 nM. Further, the inhibition in data set [6] is < 50%.
Turning to `O=C1c2ccccc2CN1c1ccccc1`, the MIC80 in data set [1], in data set [2], in data set [3] and in data set [4] was > 64 µg/mL throughout. Also, the IC50 in data set [5] was > 100000 nM. The inhibition in [6] is < 50%.
